Measurements: US20120220577A1, “GLYCINE B ANTAGONISTS” (Merz Pharma GmbH & Co KgaA, priority 2009, published 2012)
Like-named read-outs stand apart in the source and are kept apart here.

Tests used:
[1] = biological target: T1, glycine binding pocket of the NMDA receptor (Rattus norvegicus, UniProt P35439); assay: [3H]MDL-105,519 displacement studies (rat cortical membranes)
T1 construct: For isolation of the cell membranes, the cortices are homogenized; from tissue; host or cells: rat cerebral cortex membranes (male Sprague-Dawley)
Protocol: Anaesthetised male Sprague-Dawley rats (200-250 g, Janvier, Le Genest-Isle, France) are decapitated and their brains removed rapidly. […] For isolation of the cell membranes, the cortices are homogenized in 20 volumes of ice-cold 0.32 M sucrose (Sigma-Aldrich, Taufkirchen, Germany) using a glass-Teflon homogenizer. The homogenate is centrifuged at 1000×g for 10 minutes, the pellet is discarded and the supernatant centrifuged at 20,000×g for 20 minutes. The resulting pellet is re-suspended in 20 volumes of distilled water and centrifuged for 20 minutes at 8000×g. The supernatant and the buffy coat are then centrifuged three times (48,000×g for 20 minutes) in the presence of 50 mM Tris-HCl, pH 8.0 (assay buffer). All centrifugation steps are carried out at 4° C. After resuspension in 5 volumes of 50 mM Tris-HCl, pH 7.5, the membrane suspension is frozen rapidly at −80° C. On the day of assay, the membranes are thawed and washed four times by resuspension in 50 mM Tris-HCl, pH 7.5, and centrifugation at 48,000×g for 20 minutes. The final pellet is suspended in assay buffer. […] The final protein concentration used for our studies is 400 μg/ml.
A robotic system designed for binding assays (Tecan Deutschland GmbH, Crailsheim, Germany) is loaded with the membrane solution, solutions for bound control (buffer/DMSO 20%), unlabeled glycine (1 mM) for evaluation of non-specific binding, all compounds to be tested (at 20-fold concentrations), radioligand and respective 96-well plates.
The protein/receptor concentration is held constant whereas the amount of specific bound radioligand is determined using increasing concentrations of ligand.
Firstly, the assay plates are loaded with membrane solution and are shaken at 4° C. The mother plates are then prepared by pipetting the compounds into assay buffer/20% DMSO to obtain the desired final concentrations (dose response curve with five different concentrations, e.g. 10, 3, 1, 0.3, and 0.1 μM). After transferring radioligand into the assay plates, the compounds are added (including the bound and the non-specific binding control). The final DMSO concentration is 1%. The assay plates are incubated and shaken at 4° C. for 1 h, before the mixture is exhausted as rapidly as possible via a vacuum manifold using the Multiscreen HTS glass fibre (type B) filter plates (Millipore, Schwalbach, Germany) under a constant vacuum of 450 mbar. The membranes are washed four times with cold assay buffer ([…]). 50 μL of Ultima Gold scintillation cocktail (PerkinElmer, Rodgau-Jügesheim, Germany) is added to the wet filter plates and incubated at room temperature overnight before counting the disintegration per minutes using a liquid scintillation counter (MicroBeta, PerkinElmer, Rodgau-Jügesheim, Germany).
The residual radioactivity after displacement of the test compound (n=5) is then corrected with respect to the set controls.

[2] = biological target: NMDA receptor glycine B site (Rattus norvegicus, UniProt P35439); assay: Calcium FLIPR studies, rat cortical neurons (NMDA/D-Serine induced intracellular calcium); format: cell-based; design: Primary neurons are prepared from cortices of embryonal rats at day 17 of pregnancy; endogenous in cells; host or cells: primary rat cortical neurons (E17, 11-13 DIV)
Protocol: Antagonistic potencies of the test compounds are functionally evaluated using electrophysiological whole cell patch-clamp recordings and/or fluorometric intracellular Ca^2+-imaging (FLIPR) screens.
Sprague-Dawley rat embryos (E 17) are decapitated and neocortices are dissected, trypsinized and carefully triturated. The cell suspension is plated on poly-D-lysine pre-coated 96-well Plates (Greiner, Frickenhausen, Germany) at a cell density of 55.000 cells/well. The neurons are cultivated in Neurobasal media containing B27-Supplement and […] L-Glutamine (Biochrom) at 37° C. in a humidified atmosphere of 5% CO2/95% air. Medium is exchanged completely at day 4 and to 50% on day 7. At the time of experiments neurons are 11-13 days in vitro.
The increase of intracellular calcium after stimulation with 30 μM NMDA and 1 μM D-Serine is measured using the fluorometric imaging plate reader (FLIPR) and the Calcium-4-Kit (both Molecular Devices, Ismaning, Germany). Prior to addition of agonist or antagonist (5 different concentrations, n=5) the medium is aspirated and cells are washed once before loading with 150 μL of loading buffer (1 h at room temperature), consisting of Ca-4 sensitive dye reconstituted in extracellular bath solution, pH 7.3. Subsequently, plates are transferred to FLIPR to detect increases in intracellular calcium after the addition of agonist, measured as relative fluorescence units (RFU). Antagonists are pre-incubated with the cells for 10 min at room temperature before the addition of the agonist and co-agonist.
The fluorescence signal increase after addition of agonist reflects the increase of intracellular calcium. Inconsistencies in the amount of cells per well are normalised by using the spatial uniformity correction of the FLIPR software (Screenworks, Molecular Devices). The mean of replicated temporal data (n=5) is calculated and used for graphical representation. For the evaluation of the antagonistic potency, the calcium changes in response to different concentrations of antagonist are determined using an area under the curve (AUC) calculation. All responses (RFU-values) are determined as percentage of control (=maximum response at 30 μM NMDA and 1 μM D-Serine). IC50 values are calculated according the four parameter logistic equation using GraFit (Erithacus Software).

[3] = displacement of 2 nM [3H]-MDL-105,519, rat cortical membranes, read-out: NMDA-MDL 105519-r-CTX - IC50
[4] = rat cortical neurons, stimulation with 30 μM NMDA and 1 μM D-Serine, antagonist pre-incubated 10 min, read-out: NMDA-FLIPR-rCTX-NAM - IC50

IC50 [1, 3] | IC50 [2, 4] | Structure (SMILES) | IC50 [1] | IC50 [2]
0.414 µM | 3.17 µM | O=C(O)COc1cccc(NC(=O)COc2cc(C(=O)O)cc3cc(Cl)cc(Cl)c23)c1 [Example 2, 4-[(3-Carboxymethoxyphenylcarbamoyl)-methoxy]-5,7-dichloronaphthalene-2-carboxylic acid] | – | –
0.69 µM | 4.66 µM | CC(Oc1cc(C(=O)O)cc2cc(Cl)cc(Cl)c12)C(=O)Nc1ccc(CO)cc1 (stereo not drawn) [Example 16, 5,7-Dichloro-4-[1-(4-hydroxymethylphenylcarbamoyl)-ethoxy]-naphthalene-2-carboxylic acid] | – | –
– | – | CC(Oc1cc(C(=O)O)cc2cc(Cl)cc(Cl)c12)C(=O)Nc1ccccc1CO (stereo not drawn) [Example 17, 5,7-Dichloro-4-[1-(2-hydroxymethylphenylcarbamoyl)-ethoxy]-naphthalene-2-carboxylic acid] | 1.19 µM | 12.6 µM
0.236 µM | 5.4 µM | O=C(COc1cc(C(=O)O)cc2cc(Cl)cc(Cl)c12)NCc1cccc(CO)c1 [Example 22, 5,7-Dichloro-4-[(3-hydroxymethylbenzylcarbamoyl)-methoxy]-naphthalene-2-carboxylic acid] | – | –
1.03 µM | 7.32 µM | CC(Oc1cc(C(=O)O)cc2cc(Cl)cc(Cl)c12)C(=O)Nc1cccc(CO)c1 (stereo not drawn) [Example 25, 5,7-Dichloro-4-[1-(3-hydroxymethylphenylcarbamoyl)-ethoxy]-naphthalene-2-carboxylic acid] | – | –
0.79 µM | 3.5 µM | O=C(COc1cc(C(=O)O)cc2cc(Cl)cc(Cl)c12)NC(C(=O)O)c1ccccc1 (stereo not drawn) [Example 27, 4-{[(Carboxyphenylmethyl)-carbamoyl]-methoxy}-5,7-dichloronaphthalene-2-carboxylic acid] | – | –
1.09 µM | 4.75 µM | CN(C(=O)COc1cc(C(=O)O)cc2cc(Cl)cc(Cl)c12)c1cccc(C(=O)O)c1 [Example 31, 4-{[(3-Carboxyphenyl)-methylcarbamoyl]-methoxy}-5,7-dichloronaphthalene-2-carboxylic acid] | – | –
1.51 µM | 6.49 µM | O=C(O)c1cc(OC(C(=O)O)c2ccccc2)c2c(Cl)cc(Cl)cc2c1 (stereo not drawn) [Example 32, 4-(Carboxyphenylmethoxy)-5,7-dichloronaphthalene-2-carboxylic acid] | – | –
1.52 µM | 5.47 µM | Cc1ccc(S(=O)(=O)NC(=O)COc2cc(C(=O)O)cc3cc(Cl)cc(Cl)c23)cc1 [Example 36, 5,7-Dichloro-4-[2-oxo-2-(toluene-4-sulfonylamino)-ethoxy]-naphthalene-2-carboxylic acid] | – | –
1.35 µM | 10.6 µM | O=C(O)c1cc(OCC(=O)N2Cc3ccccc3CC2C(=O)O)c2c(Cl)cc(Cl)cc2c1 (stereo not drawn) [Example 38, 2-[2-(3-Carboxy-6,8-dichloronaphthalen-1-yloxy)-acetyl]-1,2,3,4-tetrahydroisoquinoline-3-carboxylic acid] | – | –
1.23 µM | 9.41 µM | O=C(O)Cc1ccc(NC(=O)COc2cc(C(=O)O)cc3cc(Cl)cc(Cl)c23)cn1 [Example 46, 4-[(6-Carboxymethyl-pyridin-3-ylcarbamoyl)-methoxy]-5,7-dichloro-naphthalene-2-carboxylic acid] | – | –
2.29 µM | 7.35 µM | O=C(O)c1cc(OCC(=O)N2CCc3ccccc3C2)c2c(Cl)cc(Cl)cc2c1 [Example 52, 5,7-Dichloro-4-[2-(3,4-dihydro-1H-isoquinolin-2-yl)-2-oxo-ethoxy]-naphthalene-2-carboxylic acid] | – | –
1.26 µM | 9.28 µM | O=C(COc1cc(C(=O)O)cc2cc(Cl)cc(Cl)c12)Nc1nnn[nH]1 [Example 64, 5,7-Dichloro-4-[(1H-tetrazol-5-ylcarbamoyl)-methoxy]-naphthalene-2-carboxylic acid] | – | –
1.39 µM | 7.54 µM | O=C(O)c1cc(OC2CCN(c3ccccc3)C2=O)c2c(Cl)cc(Cl)cc2c1 (stereo not drawn) [Example 65, 5,7-Dichloro-4-(2-oxo-1-phenyl-pyrrolidin-3-yloxy)-naphthalene-2-carboxylic acid] | – | –
1.37 µM | 6.49 µM | COCC(Oc1cc(C(=O)O)cc2cc(Cl)cc(Cl)c12)C(=O)Nc1ccccc1 (stereo not drawn) [Example 67, 5,7-Dichloro-4-(2-methoxy-1-phenylcarbamoyl-ethoxy)-naphthalene-2-carboxylic acid] | – | –
1.27 µM | 4.96 µM | COc1ccccc1N1CCC(Oc2cc(C(=O)O)cc3cc(Cl)cc(Cl)c23)C1=O (stereo not drawn) [Example 75, 5,7-Dichloro-4-[1-(2-methoxy-phenyl)-2-oxo-pyrrolidin-3-yloxy]-naphthalene-2-carboxylic acid] | – | –
0.089 µM | 1.65 µM | NCc1ccc(OCC(=O)O)c(NC(=O)COc2cc(C(=O)O)cc3cc(Cl)cc(Cl)c23)c1 [Example 79, 4-[(5-Aminomethyl-2-carboxymethoxy-phenylcarbamoyl)-methoxy]-5,7-dichloro-naphthalene-2-carboxylic acid] | – | –
1.19 µM | 11.3 µM | CC(C)(Oc1ccccc1NC(=O)COc1cc(C(=O)O)cc2cc(Cl)cc(Cl)c12)C(=O)O [Example 81, 4-{[2-(1-Carboxy-1-methyl-ethoxy)-phenylcarbamoyl]-methoxy}-5,7-dichloro-naphthalene-2-carboxylic acid] | – | –
1.84 µM | 5.75 µM | O=C(COc1cc(C(=O)O)cc2cc(Cl)cc(Cl)c12)Nc1ccc(Cc2nnn[nH]2)cc1 [Example 86, 5,7-Dichloro-4-{[4-(1H-tetrazol-5-ylmethyl)-phenylcarbamoyl]-methoxy}-naphthalene-2-carboxylic acid] | – | –
1.54 µM | 3.8 µM | O=C(COc1cc(C(=O)O)cc2cc(Cl)cc(Cl)c12)Nc1ccc(OCc2nnn[nH]2)cc1 [Example 88, 5,7-Dichloro-4-{[4-(1H-tetrazol-5-ylmethoxy)-phenylcarbamoyl]-methoxy}-naphthalene-2-carboxylic acid] | – | –
0.499 µM | – | O=C(COc1cc(C(=O)O)cc2cc(Cl)cc(Cl)c12)Nc1cccnc1 [Example 127, 5,7-Dichloro-4-(pyridin-3-ylcarbamoylmethoxy)-naphthalene-2-carboxylic acid] | – | –
0.98 µM | – | O=C(COc1cc(C(=O)O)cc2cc(Cl)cc(Cl)c12)Nc1ccccn1 [Example 129, 5,7-Dichloro-4-(pyridin-2-ylcarbamoylmethoxy)-naphthalene-2-carboxylic acid] | – | –
